# Reference: patent US20210230131A1, “POLYAMINO BIARYL COMPOUNDS AND THEIR USE” (INSERM (INSTITUT NATIONAL DE LA SANTÉ ET DE LA RECHERCHE …, priority 2018, published 2021)
# Tested on: ThyTau22 mice
# Assay: Y-Maze short-term memory test in Thy-Tau22 mice
# Type: in vivo
# Conditions: ThyTau22 mice treated one month, 1 mg/kg in drinking water; compared with compound 30
# Procedure: Thy-Tau22 transgenic colonies (C57Bl/6J genetic background) were obtained by crossing heterozygous males C57Bl/6J with WT females. All animals were housed in a pathogen-free facility at 5 to 6 animals per cage (Techniplast Cages 1284L), with ad libitum access to food and water in a 12/12-hour light-dark cycle and maintained under a constant temperature of 22° C. For treatment, animals were randomly distributed and compound 30 or 31 was provided in the drinking water at a final concentration of 1 mg/kg, ie 12.5 μg/mL for drinking solutions taking into account an average weight of 25 g/mouse drinking 4 mL/day. […] Food consumption and bodyweight were also assessed. […]
# Before any behavioral test, exploratory behavior and locomotion were evaluated in treated and untreated animals in an Openfield (OF) 25 cm×25 cm arena. […] Anxiety, which could interfere with the memory test, was evaluated using the elevated plus maze (EPM). […] Locomotion, distance, speed and velocity were measured, as well as the number of entries into each arm, time spent in open versus closed arms, percentage of open arm entries and time spent in the open arms during a 5 minutes test.
# Y-Maze: Short-term memory was tested on a Y-maze. […] Parameters—total distance travelled, velocity, alternation between the arms, entries into the new, starting or other arm—were measured over 5 minutes. […]
structure (smiles),measurement,value
"CN(C)Cc1ccccc1-c1ccc(NCCCN2CCCCC2)c(OCCC2CCCCC2)c1 [Compound 31, 3-(2-cyclohexylethoxy)-2′-((dimethylamino)methyl)-N-(3-(piperidin-1-yl)propyl)-[1,1′-biphenyl]-4-amine]",short memory preservation at the Y-Maze task,higher short memory preservation
